# Measurements: US20040110693A1, “Agent for treating diabetes mellitus” (priority 2001, published 2004)
# Several values for one entry are separate records, joined by “and”; a condition that tells them apart may be missing. Equal entries are not always repeated.
# Key:
# [1] = test system: normal persons; assay: Side effects in normal persons after 50-75 g of sucrose instead of test breakfast; format: in vivo, human; conditions: 100 mg
# [2] = test system: type II diabetics; assay: Short-term experiments with alpha-glucosidase inhibitors and bulk materials: blood sugar increase after test breakfast; conditions: for action compared with bulk material: levelling of blood sugar increase after eating; for Hypoglycemia, MG 100, mean value: mean of 6 cases
# Procedure: After measurement of the fasting blood sugar in the morning, 20 type II diabetics received a test breakfast (75 g of white bread, 20 g of butter, 40 g of jam or, as a sugar-free variant, 75 g of white bread, 20 g of butter and 40 g of cheese). On the control days, before the test breakfast 75 ml of yoghurt were given, and on the test days the various bulk materials were given in 75 ml of yoghurt. […] After the test breakfast, the blood sugar values were measured at ½ to 1 hour intervals for 2-4 hours. Each short-term experiment was carried out two to three times with the individual subjects. The respective average values are indicated.
# The basis for the evaluation is the graphic representation of the blood sugar values as curves. The increasing phase of the blood sugar lasting 1-2 hours is determined planimetrically and considered as a measure of the lower limit of glucose absorption. In the first hour after the test breakfast, under physical quasi-resting conditions the increase in the blood sugar curve ought to reflect the intestinal glucose absorption into the blood almost unadulteratedly on the morning of the experiment in the diabetic differently from in the healthy person. Beyond the first hour, even in most type II diabetics an insulin response commences more or less clearly which levels off the blood sugar increase, or conversely in any case leads to a corresponding underestimation of the glucose absorption. […] The planimetric evaluation of all curves is then extended until achieving the peak of the last curve. […] For practical reasons, we compare the increasing phases of the blood sugar curves under the various experimental conditions (control, after bulk material, in the later experiments also after alpha-glucosidase inhibitors) with one another and calculate from this the degree of hypoglycemia based on the control curve. […] The statistical evaluation, which is possible only in the short-term experiments on account of the amounts of data, is carried out using the student's t test in a paired comparison.
# 21 patients were investigated: 10 each received acarbose and miglitol, 1 patient first acarbose and then miglitol. The individual dose used was 25-100 mg.
# Immediately before the test meals described above, the subjects received either a) 75 ml of yoghurt (control experiment) or b) bulk material in yoghurt (bulk curve) or c) a tablet of acarbose or miglitol and then 75 ml of yoghurt (alpha-GI curve) or d) this medicament 5 minutes before taking bulk material in yoghurt (bulk-plus alpha-GI curve). As described, the blood sugar values were determined before and for 3 hours after the test meal.
# [3] = 50 mg on its own (acarbose 2 cases, miglitol 8 cases)
SMILES,symptoms after 50-75 g of sucrose [1],"concomitant symptoms [2, 3]","Hypoglycemia (decrease in the blood sugar increase after a test breakfast), Alpha-GI ([2]; AB 50 mg, individual patient)","Hypoglycemia (decrease in the blood sugar increase after a test breakfast), Alpha-GI ([2]; AB 100 mg, individual patient)",action compared with bulk material [2],concomitant symptoms ([2]; 25 mg on its own (5 cases)),"Hypoglycemia (decrease in the blood sugar increase after a test breakfast), Alpha-GI ([2]; MG 25 mg, individual patient)","Hypoglycemia (decrease in the blood sugar increase after a test breakfast), Alpha-GI ([2]; MG 50 mg, individual patient)","Hypoglycemia (decrease in the blood sugar increase after a test breakfast), Alpha-GI ([2]; MG 100 mg, individual patient)","Hypoglycemia, MG 100 ([2]; miglitol 100 mg on its own, individual patient)","Hypoglycemia, MG 100, mean value ([2]; miglitol 100 mg on its own)","Hypoglycemia, MG 100, mean value ([2]; miglitol 100 mg on its own, listed as miglitol)","patients with semiliquid stools as far as diarrhea ([2]; on its own, short-term experiments)"
"CC1OC(OC2C(CO)OC(OC3C(CO)OC(O)C(O)C3O)C(O)C2O)C(O)C(O)C1NC1C=C(CO)[C@@H](O)[C@H](O)[C@H]1O (stereo partly shown) [AB, acarbose]",abdominal pain and diarrhea occurred,no clear concomitant symptoms,42% and 50%,41% and 63% (2×) and 56% and 65% and 6% and 55% and 39% and 58% and 59%,considerably stronger action than bulk material,,,,,,,,
"OCCN1C[C@H](O)[C@@H](O)[C@H](O)[C@H]1CO [MG, miglitol]",abdominal pain and diarrhea occurred,no clear concomitant symptoms,,,considerably stronger action than bulk material,no clear concomitant symptoms,27% and 47% and 12% and 53% and 49% and 24%,33% and 40% and 37% and 62% (2×) and 25% and 59% and 71%,24% and 60% and 80% and 59% and 32% and 66% and 75% and 34% and 73%,66% and 75% and 34% and 80% and 59% and 32%,57.7%,58%,4 of 9 patients
